Measurements reported in US8357671B2, “High affinity Siglec ligands” (priority 2005, dated 2013).
pIC50: −log10 of the molar value. Several values for one entry are separate records, joined by “and”; a condition that tells them apart may be missing. Equal entries are not always repeated.

Columns and labels:
human CD22 = molecular target: T1, human CD22 (Homo sapiens, UniProt P20273); test: ELISA inhibition assay: CD22-Fc chimera binding to immobilized NeuAc-LN; conditions: for pIC50: inhibition of CD22-Fc binding to immobilized NeuAcα2,6LacNAc, read-out: IC 50 value hCd22; for rIP hCd22 (relative inhibitory potency): relative to NeuAc-LN = 1
T1 construct: made in house
T1 sequence (P20273 with tags, fused parts or gaps limits assumed): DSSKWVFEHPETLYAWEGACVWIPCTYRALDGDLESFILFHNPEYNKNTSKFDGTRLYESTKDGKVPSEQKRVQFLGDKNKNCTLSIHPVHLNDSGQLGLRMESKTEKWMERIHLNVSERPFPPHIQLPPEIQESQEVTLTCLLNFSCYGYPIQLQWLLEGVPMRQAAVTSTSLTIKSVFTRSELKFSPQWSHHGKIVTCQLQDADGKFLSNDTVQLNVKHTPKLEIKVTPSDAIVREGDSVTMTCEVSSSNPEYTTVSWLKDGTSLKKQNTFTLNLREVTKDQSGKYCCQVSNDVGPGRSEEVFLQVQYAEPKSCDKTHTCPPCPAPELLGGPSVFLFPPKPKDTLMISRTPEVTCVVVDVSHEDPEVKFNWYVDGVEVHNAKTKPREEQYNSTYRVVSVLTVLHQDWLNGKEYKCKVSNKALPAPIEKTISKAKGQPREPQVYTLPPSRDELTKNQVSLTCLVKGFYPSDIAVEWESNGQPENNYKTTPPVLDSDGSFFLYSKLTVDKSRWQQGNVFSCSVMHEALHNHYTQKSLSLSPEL
Description: (§1) FIG. 1A-B illustrate that sialosides with derivation at position 9 that includes a neutral core and a hydrophobic moiety are potent inhibitors for CD22. Similar inhibitors can be made by derivation at position 5. […] FIG. 1B graphically illustrates competitive inhibition of selected sialoside inhibitors. Inhibitors were added with soluble CD22-Fc chimeras to block the chimera binding to immobilized NeuAcα2-6Galβ1-4GlcNAc (NeuAc-LN, human CD22, hCD22) or NeuGcα2,6Galβ1-4GlcNAc (NeuGc-LN, mouse CD22, mCD22). Data are the average +/−S.D. of triplicate determinations and are representative of two individual assays.
(§2) ELISA inhibition assays: For inhibition assays, high binding 96 well microtiter plates (Corning Costar) were coated with neutravidin by incubation with 50 ul of 1 mg/ml Neutravidin (Pierce Biotechnology) in 50 mM Na bicarbonate pH 9.5 overnight at 4° C. The wells were then washed with PBS and blocked with PBS containing 5 mg/ml BSA for 1 hr at 37° C. Fifty microliters of a selected biotinylated sialoside (0.33 uM) was added to each well, and allowed to bind for 1 hr at room temperature. The sialoside was then allowed to bind for 1 hr at 37° C. and the wells were washed.
(§3) The CD22-Fc chimera employed was produced as described in Blixt et al. (J. Biol. Chem. 278: 31007-19 (2003)) and diluted to 0.1 mg/ml into HBSS (with 5 mg/ml BSA and 1 mM EDTA). An F(ab′)2 Fragment Goat anti-Human IgG (Jackson Immunoresearch) (0.066 mg/ml) was mixed and allowed to complex with Peroxidase conjugated F(AB′)2 Fragment Rabbit anti Goat F(ab′)2 specific (0.010 mg/ml) for 15 min. CD22-Fc (1.5 ml) was added to 1 ml of the pre-complexed solution and allowed to further associate with complexes in that solution for 15 min. The inhibitor of interest was diluted into HBSS. Twenty-five microliters of the inhibitor and 25 ul of the CD22Fc complex were added to each well and the plates were incubated for 30 min at 37° C. The plates were then washed 4 times with 200 ul of HBSS. Wells were developed with 50 ul of 1 mg/ml OPD (Sigma), 0.03% H2O2 in 50 mM phosphate/citrate, pH 5.0. The reaction was stopped with 50 ul of 2.5 M H2SO4 and the optical density at 450 nm (OD450) was measured.

mouse CD22 = molecular target: T2, mouse CD22 (Mus musculus, UniProt P35329); test: ELISA inhibition assay: CD22-Fc chimera binding to immobilized NeuGc-LN; conditions: for pIC50: inhibition of CD22-Fc binding to immobilized NeuGcα2,6LacNAc, read-out: IC 50 value mCd22; for rIP mCd22 (relative inhibitory potency): relative to NeuGc-LN = 1
T2 construct: made in house
T2 sequence (P35329 with tags, fused parts or gaps limits assumed): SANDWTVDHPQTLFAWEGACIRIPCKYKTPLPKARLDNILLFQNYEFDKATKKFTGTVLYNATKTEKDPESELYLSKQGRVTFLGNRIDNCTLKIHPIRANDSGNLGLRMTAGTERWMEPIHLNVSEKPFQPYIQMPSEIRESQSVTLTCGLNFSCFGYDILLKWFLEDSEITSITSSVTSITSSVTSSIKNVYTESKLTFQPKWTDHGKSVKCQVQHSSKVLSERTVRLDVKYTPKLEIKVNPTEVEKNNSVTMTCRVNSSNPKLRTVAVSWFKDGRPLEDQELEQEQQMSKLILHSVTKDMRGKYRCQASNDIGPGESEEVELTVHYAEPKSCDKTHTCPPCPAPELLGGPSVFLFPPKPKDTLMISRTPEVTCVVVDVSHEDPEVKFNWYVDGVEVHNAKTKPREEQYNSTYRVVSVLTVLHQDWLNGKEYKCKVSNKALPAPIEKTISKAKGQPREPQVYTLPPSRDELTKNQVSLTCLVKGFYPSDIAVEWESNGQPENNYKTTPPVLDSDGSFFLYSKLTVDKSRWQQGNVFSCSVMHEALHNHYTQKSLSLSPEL
Description: as §1, §2, §3

Siglec 10 = test: PAA probe binding to Siglec 10; conditions: result in words
Excerpt: Building on the binding studies described above, polyacrylamide (PAA) probes containing the BPA-NeuGc-LN or BPC-NeuAc-LN sialosides were synthesized and tested for binding to CD22. […] Siglec 10 another B cell lectin, however, binds well to the NeuGc-LN glycan, but in contrast to CD22, only weakly to the high molecular weight BPA derivative.

BJAB cells = test: Measurement of probe internalization; type: cell-based, human; conditions: caveolin inhibitor
Description: To generate the data shown in FIG. 5A, BJAB cells grown in the presence of sera and supplemented with NeuAc were incubated with the high molecular weight BPC-NeuAc-LN-PAA (light and heavy lines) or LN-PAA (Shaded) probes for 1.5 h on ice, followed by CyChrome labeled streptavidin for 45 min on ice. After washing, the cells were then incubated at 37° C. for the indicated period of time. Following this incubation, cells were washed with HBSS/BSA (shaded peak and heavy line) or RPMI pH 2.5 (light line). Bound or internalized probe was detected by flow cytometry. To generate the data shown in FIG. 5B, cells were washed with RPMI:Water (1/1) and then incubated for 1 hr in media with or without potassium. After pre-chilling on ice, cells were incubated in the corresponding media with the BPC-NeuAc-LN-PAA probe and then internalization was measured as above. Data are the average of two independent experiments.
Measurement of probe internalization. BJAB cells (2×10^6 cell/ml) were labeled with the PAA probe and streptavidin as above. Following staining, aliquots of 100 ul of the cell suspension were placed on ice or at 37° C. for selected periods of time. […]
Similarly, the ability for B cells to endocytose the PAA probes was determined. […] The remaining fluorescence as measured by flow cytometry as a measure of the amount of internalized probe.

[1] = molecular target: T3, CD22Fc chimeras (hCD22Fc) (Homo sapiens, UniProt P20273); test: ELISA-type assay of IgM/NP-BPC/CD22 complex formation; type: binding
T3 construct: made in house; host or cells: COS cells
T3 sequence (P20273 with tags, fused parts or gaps limits assumed): as the sequence (P20273 with tags, fused parts or gaps limits assumed) above
Description: FIG. 7A-7C illustrate a self-assembling B cell targeting complex as one aspect of the invention. […] CD22-Fc chimeras were immobilized onto protein A coated wells. After washing, the indicated amount of either NP, or NP-BPC was added along with the anti-NP IgM was added and allowed to bind for 30 min at room temperature. After washing, bound IgM was detected with HRP-conjugated anti-IgM and developed with OPD. Data are the average ±S.D. of triplicates, and are representative of 3 independent experiments.
ELISA-Type Assay. High Binding microtiter plates were coated with neutravidin (1 ug/50 ul/well in Na Bicarbonate pH 9.5) overnight at 4° C., then washed with 200 ul of HBSS/BSA. Culture supernatants containing hCD22Fc chimera were incubated in the wells for 2 h at room temperature. Wells were then washed and a mixture of IgM antibodies that recognize nitrophenyl groups (anti-NP antibodies) and 50 ul of varying concentrations of the BPC-Siaα2-6LN heterobifunctional ligand were added. The plates were allowed to bind for 30 min. […]
CD22Fc chimeras were immobilized onto microtiter plates and overlaid with mixtures of IgM anti-NP and NP or NP-BPC. Following washing, bound IgM complex was detected with HRP-conjugated anti-Ig antibodies. CD22-dependent binding of the complex was detected, with maximal IgM complex binding achieved when using less than 200 nM NP-BPC.

[2] = molecular target: T4, CD22 on sialylated (native) BJAB cells (Homo sapiens, UniProt P20273); test: Self-assembled IgM complex binding to sialylated BJAB cells; type: cell-based; conditions: high concentration of cis ligands
T4 construct: endogenous in cells; host or cells: BJAB cells (incl. K20 subclone)
T4 sequence (P20273 20-847): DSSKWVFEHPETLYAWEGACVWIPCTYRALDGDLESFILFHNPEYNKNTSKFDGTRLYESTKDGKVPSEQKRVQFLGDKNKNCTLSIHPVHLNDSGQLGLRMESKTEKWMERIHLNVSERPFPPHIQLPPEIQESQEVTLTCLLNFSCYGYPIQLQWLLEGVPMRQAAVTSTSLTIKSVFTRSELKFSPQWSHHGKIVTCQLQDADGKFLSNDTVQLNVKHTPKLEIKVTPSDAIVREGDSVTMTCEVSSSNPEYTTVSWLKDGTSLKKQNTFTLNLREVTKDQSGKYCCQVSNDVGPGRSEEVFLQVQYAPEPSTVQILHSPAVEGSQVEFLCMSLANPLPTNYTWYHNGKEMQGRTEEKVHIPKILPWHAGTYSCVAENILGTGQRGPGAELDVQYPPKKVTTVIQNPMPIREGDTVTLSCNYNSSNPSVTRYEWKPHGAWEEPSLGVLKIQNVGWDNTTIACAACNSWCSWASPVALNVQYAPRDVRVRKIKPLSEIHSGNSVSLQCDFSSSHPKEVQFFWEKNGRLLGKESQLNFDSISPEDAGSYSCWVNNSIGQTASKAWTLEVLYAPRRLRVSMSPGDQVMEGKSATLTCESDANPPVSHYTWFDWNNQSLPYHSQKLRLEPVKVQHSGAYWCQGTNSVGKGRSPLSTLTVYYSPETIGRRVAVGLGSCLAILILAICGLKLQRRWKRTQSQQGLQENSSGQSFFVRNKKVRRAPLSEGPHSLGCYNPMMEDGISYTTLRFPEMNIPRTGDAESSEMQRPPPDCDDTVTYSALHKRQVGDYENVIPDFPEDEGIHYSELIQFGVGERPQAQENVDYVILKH

[3] = molecular target: T5, CD22 on asialo K20 cells (BJAB subclone) (Homo sapiens, UniProt P20273); test: Self-assembled IgM complex binding to asialo cells
T5 sequence (P20273 20-847): T4 sequence (P20273 20-847)
Description: Following washing, bound IgM was detected with FITC-labeled anti-Ig and read by flow cytometry. […] Free NP, the heterobifunctional ligand, and the IgM anti-NP were all added to BJAB cells and allowed to incubate on ice before washing. Bound IgM was detected as described for FIG. 5B. […] After binding of a self-assembled complex of NP-BPC and Alexa Fluor-labeled anti-NP IgM antibodies to BJAB cells on ice, the cells were washed and allowed to internalize the complex for the indicated period of time. After a brief acid wash to remove any surface IgM, internalized IgM was quantified by flow cytometry.
Cell Binding. BJAB cells, incubated with or without exogenous sialic acid (4 mM) for 2 days, were resuspended in HBSS/BSA at a density of 1×10^6 cells/ml and the varying amounts of IgM and the BPC-NP construct shown in FIG. 7 were added to the cells and allowed to bind for 1 hr on ice. Cells were then washed with 1 ml of HBSS/BSA and then incubated with FITC-labeled anti-IgM for 30 min on ice. After washing again, the cells were read by flow cytometry.
To further evaluate the ability for the IgM complex to bind to CD22 on B cells, cells deficient in cell-surface sialic acid were used.

[4] = molecular target: T6, cell surface CD22 (hCD22) on Daudi cells (Homo sapiens, UniProt P20273); test: Inhibition of NeuAc-LN-PAA probe binding to sialidase-treated Daudi cells; type: cell-based; conditions: inhibitor 10, 30, 200 uM
T6 construct: endogenous in cells; host or cells: Daudi cells (sialidase-treated)
T6 sequence (P20273 20-847): T4 sequence (P20273 20-847)
Description: FIG. 2A-B illustrate inhibition of multivalent sialoside probe binding to cell surface CD22 by potent biphenyl (BP) derivatives. FIG. 2A provides the results for murine splenocytes. Murine splenocytes were mock-treated (grey shaded peak) or actually treated with A. ureafaciens sialidase to cleave sialic acid-containing glycans from cell surfaces and thereby ‘unmask’ surface CD22. The cells were then incubated with NeuGc-LN-PAA alone (rightmost Black line, where PAA refers to a polyacrylamide carrier) or in the presence of 5 uM (light line to the right of center), 200 uM (central grey line) or 2 mM (leftmost dark grey line) of the indicated inhibitor for 1.5 h on ice, then washed. Bound probe was detected with streptavidin-PE, and B cells stained with anti-B220. Data are for B220+ cells only. FIG. 2B provides results for Daudi Cells. […] Bound probe was detected with streptavidin-PE and measured by flow cytometry. […]
Inhibition of Probe-Binding to B cells by Sialic Acid Inhibitors. […] These “cis” glycan ligands can mask binding of sialic acid ligands provided in “trans.” After treatment with sialidase, inhibition of B cell binding by monovalent BPC-NeuAc-LN and BPA-NeuGc-LN was detected for multivalent polyacrylamide (PAA) sialoside probes derivatized with NeuAc-LN (hCD22) or NeuGc-LN (mCD22) (FIG. 2).

Compound | pIC50 (human CD22) | rIP hCd22 (relative inhibitory potency) (human CD22) | inhibition of Siglec binding to immobilized sialoside (human CD22; result in words) | pIC50 (mouse CD22) | rIP mCd22 (relative inhibitory potency) (mouse CD22) | binding to Siglec 10 (Siglec 10) | effect on probe internalization (BJAB cells) | concentration for maximal IgM complex binding [1] | binding to CD22 on sialylated BJAB cells [2] | concentration at maximal binding of the complex [3] [µM] | inhibition of NeuAc-LN-PAA probe binding [4]
CC(=O)N[C@H]1[C@H]([C@H](O)[C@H](O)CO)OC(O)(C(=O)O)C[C@@H]1O (stereo partly drawn) [NeuAc, N-acetylneuraminic acid] | < 2.70 | <0.1 | no inhibition | < 2.70 | <0.1 |  |  |  |  |  | 
CC(=O)NC1C(O)OC(CO)C(OC2OC(COC3(C(=O)O)CC(O)C(NC(=O)CO)C(C(O)C(O)CO)O3)C(O)C(O)C2O)C1O (stereo not drawn) [NeuGc-LN, NeuGcα2,6Galβ1-4GlcNAc] | 3.59 | 0.85 |  | 3.66 | 1 | binds well |  |  |  |  | 
C[C@@H]1[C@H](O)[C@@H](C)/C=C/C=C/CC/C=C/C=C/C=C/C=C/C(O[C@H]2O[C@H](C)[C@@H](O)[C@H](N)[C@@H]2O)CC2O[C@](O)(CC(O)C(O)CCC(O)CC(O)CC(O)CC(=O)O[C@H]1C)CC(O)C2C(=O)O (stereo partly drawn) [nystatin] |  |  |  |  |  |  | did not inhibit |  |  |  | 
CC(=O)NC1C(O)CC(O)(C(=O)O)OC1C(O)C(O)CNC(=O)c1ccc(-c2ccccc2)cc1 [BPC-NeuAc, 5-Acetamido-9-[(1,1′-biphenyl)-4-carboxamido]-3,5,9-trideoxy-D-glycero-D-galacto-2-nonulo-pyranosyl-onate] | 4.46 | 6.3 |  | 2.82 | 0.15 |  |  |  |  |  | 
CC(=O)N[C@H]1[C@H](OCCNC(=O)Cc2ccc(O)c([N+](=O)[O-])c2)O[C@H](CO)[C@@H](O[C@@H]2O[C@H](CO[C@]3(C(=O)O)C[C@H](O)[C@@H](NC(C)=O)[C@H]([C@H](O)[C@H](O)CNC(=O)c4ccc(-c5ccccc5)cc4)O3)[C@H](O)[C@H](O)[C@H]2O)[C@@H]1O [NP-BPC, [(4′-hydroxyl-3′-nitrophenylacetamido)-ethyl-β-]-[[5-Acetamido-9-[(1,1′-biphenyl)-4-carboxamido]-3,5,9,trideoxy-D-glycero-D-galacto-2-nonulo-pyranosyl-onate-α2-6-O-D-galactopyranosyl-β1-4]]-D-2-acetamido-2-deoxy-glucopyranoside] |  |  |  |  |  |  |  | less than 200 nM | bound efficiently | 0.16 | 
9-biphenylcarbonyl (BPC)-Neu5Acα2-6Galβ1-4GlcNAc [BPC-NeuAcLN] | 5.70 and 5.66 | 100 |  | 3.62 | 0.91 |  |  |  |  |  | complete inhibition
CC(=O)N[C@@H]1[C@@H](O)[C@H](O[C@@H]2O[C@H](CO[C@]3(C(=O)O)C[C@H](O)[C@@H](NC(C)=O)[C@H]([C@H](O)[C@H](O)CO)O3)[C@H](O)[C@H](O)[C@H]2O)[C@@H](CO)O[C@H]1O [NeuAc-LN, NeuAcα2-6Galβ1-4GlcNAc] | 3.70 and 3.66 | 1 |  | < 2.70 | <0.1 |  |  |  |  |  | 
